Experimental findings from patent US20190209568A1, “METHOD OF PREVENTING OR TREATING HEARING LOSS” (SUPPORT-VENTURE GMBH, priority 2016, published 2019) are described below.

The subject of the data set is auditory hair cells of organ of Corti (OC) explants. As to the kind of experiment: Protection of auditory hair cells from gentamicin-induced loss in organ of Corti explant culture (hair cell counting, basal turn). To be noted: for hair cells lost / protection from loss of hair cells / loss of hair cells: 24 hours; for protection against gentamicin-induced loss of hair cells (in words): Example 1: 5 μM pioglitazone, 30 μM pamapimod, or both, with gentamicin, 24 hr in culture; for loss of hair cells: p5 mouse OC explants, basal turn. The class given is cell-based, C57bl/6j mice. Here is the method: All animal procedures were carried out according to protocols approved by the Kantonales Veterinäramt, Basel, Switzerland. Postnatal day 5 (p5) C57bl/6j were used for the studies. Studies were performed in vitro, using organ of Corti (OC) explants from p5 animals. Animals were sacrificed and the cochleae carefully dissected to separate the organ of Corti from the spiral ganglion, stria vascularis and Reissner's membrane [Sobkowicz H M, Loftus J M, Slapnick S M. Acta Otolaryngol Suppl. 1993; 502:3-36].
OCs were harvested and then placed in culture medium [Dulbecco's Modified Eagle Medium supplemented with 10% FCS, 25 mM HEPES and 30 U/ml penicillin (Invitrogen, Carlsbad, 20 CA, USA)] and incubated for 24 hours at 37° C. in an atmosphere of 95% O2/5% CO2. After that period, the culture medium was replaced with fresh medium containing no compound or 50 μM gentamicin alone or 50 μM gentamicin with either 5 μM pioglitazone, 30 μM pamapimod, or 5 μM pioglitazone+30 μM pamapimod, and incubated for a further 24 hours at 37° C. Ten OC explants were used for each treatment condition.
After incubation with compounds, the OCs were fixed in 4% paraformaldehyde, washed and then stained with a fluorescein (FITC)-conjugated phalloidin to detect inner and outer hair cells. After staining, the OCs were visualized and photographed using a fluorescence microscope (Olympus FSX100). Auditory hair cells were quantified for the basal turn of each organ of Corti in 3 fields corresponding to 80 hair cells each. The average values for the three fields were then averaged for the 10 OCs used for each condition. Significant differences between treatment groups in numbers of hair cells were determined using analysis of variance (ANOVA) followed by the least significant difference (LSD) post-hoc test (Stat View 5.0). Differences associated with P values of less than 0.05 were considered to be statistically significant. All data are presented as mean±SD.
OCs were harvested and then placed in culture medium [Dulbecco's Modified Eagle Medium supplemented with 10% FCS, 25 mM HEPES and 30 U/ml penicillin (Invitrogen, Carlsbad, 20 CA, USA)] and incubated for 24 hours at 37° C. in an atmosphere of 95% O2/5% CO2. After that period, the culture medium was replaced with fresh medium containing no compound or 100 µM gentamicin alone or 100 μM gentamicin with either 1 μM pioglitazone, 1 μM pamapimod, or 1 μM pioglitazone+1 μM pamapimod, and incubated for a further 24 hours at 37° C. The gentamicin concentration of 100 μM was determined as that concentration that leads to 50% loss of hair cells. Batch to batch variation in the activity of gentamicin requires that the concentration used for specific experiments leading to 50% hair cell loss be predefined in pilot experiments for each batch. Ten OC explants were used for each treatment condition.

In the case of `Cn1c(=O)c(Oc2ccc(F)cc2F)cc2cnc(NC(CCO)CCO)nc21` [pamapimod, 6-(2,4-Difluorophenoxy)-2-[3-hydroxy-1-(2-hydroxyethyl)-propylamino]-8-methyl-8H-pyrido[2,3-d]pyrimidin-7-one], the “protection against gentamicin-induced loss of hair cells (in words)” value was “partially prevented the loss of hair cells”. In addition, the hair cells lost entry (Example 1, FIG. 1: 30 μM pamapimod (micronized, Dv50=3 μm) with 50 μM gentamicin) is given as “approximately 20%”. Moreover, the “protection from loss of hair cells” value (Example 2, FIG. 2: 1 μM pamapimod with 100 μM gentamicin) is “approximately 30%”.

As for gentamicin, the “loss of hair cells” value was “approximately 50%” (Example 1, FIG. 1: 50 μM gentamicin alone) and “approximately 50%” (Example 2, FIG. 2: 100 μM gentamicin alone).

`CCc1ccc(CCOc2ccc(CC3SC(=O)NC3=O)cc2)nc1` (centres unmarked) [pioglitazone]: the “protection against gentamicin-induced loss of hair cells (in words)” value is “partially prevented the loss of hair cells”. Further, the hair cells lost result (Example 1, FIG. 1: 5 μM pioglitazone (micronized, Dv50=4 μm) with 50 μM gentamicin) is “approximately 20%”. Moreover, the “protection from loss of hair cells” value (Example 2, FIG. 2: 1 μM pioglitazone with 100 μM gentamicin) was “approximately 40%”.
